Here are results for four compounds from ChEMBL document CHEMBL1201862, “PubChem BioAssay data set” (2004).

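Cells were grown in 96-well plates and exposed to each compound for 48 hours at five concentrations; endpoints were interpolated linearly between bracketing concentrations, or set to the highest concentration if not reached. GI50 = concentration required for 50% inhibition of growth.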 Active and inactive are the calls of the source. No stated cut-off is given here; in the data, active = GI50 up to about 1.1 µM and inactive = higher.

Common to all, as to experiment: growth of human tumour cells (NCI), 48 h
Assay [1] relates to A498.
Assay [2] has as its system CAKI-1.
Assay [3] relates to CCRF-CEM.
Assay [4] concerns DU-145.
Assay [5] relates to HCC 2998.
In assay [6] the test system is HCT-15.
The test system of assay [7] is HL-60.
The test system of assay [8] is Hs-578T.
The test system of assay [9] is LOX IMVI.
The test system of assay [10] is MDA-MB-231.
In assay [11] the test system is NCI-H226.
Assay [12] deals with RXF 393.
Assay [13] has as its system SF-539.
Assay [14] relates to SK-MEL-5.
Assay [15] deals with SK-OV-3.
For assay [16], the system named is SR.
Assay [17] concerns SW-620.
The subject of assay [18] is T47D.
Assay [19] relates to U-251.
Assay [20] deals with UO-31.

As for `N#CC1=C(N)OC(c2ccc([N+](=O)[O-])cc2)C1(C#N)C#N` (centres undefined), the GI50 in assay [1] is 14.4 µM (inactive); in assay [2], 0.785 µM (active); in assay [3], 2.57 µM (inactive); in [4] it was 17.9 µM (inactive); in [5] it was 9.46 µM (inactive); in assay [6] it was 10.5 µM. For the same compound, the GI50 in assay [7] was 3.46 µM (inactive); in [8] it was 25.9 µM (inactive); in [9] it was 8.49 µM (inactive); in assay [10] it was 16.4 µM (inactive); in assay [11], 18.3 µM (inactive); in assay [12] it was 7.23 µM (inactive). In addition, the GI50 is 15.1 µM (inactive) in [13]; 9.48 µM (inactive) in assay [14]; 26.2 µM (inactive) in assay [15]; 3.97 µM (inactive) in [16]; 13.2 µM (inactive) in assay [17]; 18.4 µM (inactive) in assay [18]. For the same compound, the GI50 is 25.4 µM (inactive) in assay [19] and 6.27 µM (inactive) in assay [20].
Consider `Cc1c(F)c(N)c2c(=O)cc(-c3ccc(NC(=O)C(N)CCCNC(=N)N)c(F)c3)oc2c1F` (centres undefined), for which the GI50 is 0.0615 µM (active) in assay [1]; 0.0792 µM (active) in assay [2]; > 88.3 µM (inactive) in [3]; 29.6 µM (inactive) in assay [4]; 0.134 µM (active) in [5]; 19.7 µM in [6]. Besides, the GI50 in [7] is > 52 µM (inactive); in assay [8], 28.5 µM (inactive); in assay [9], 38.1 µM (inactive); in assay [10] it was 22.5 µM (inactive); in assay [11], 0.111 µM (active); in [12] it was 21.6 µM (inactive). Also, the GI50 in assay [13] is 16.7 µM (inactive); in assay [14], 19.7 µM (inactive); in assay [15], > 44.5 µM (inactive); in assay [16], 43 µM (inactive); in assay [17], > 61.5 µM (inactive); in [18] it was 0.411 µM (active). In addition, the GI50 is 3.6 µM (inactive) in [19] and 22.8 µM (inactive) in assay [20].
For `O=C1c2ccccc2C(=O)c2c1ccc1c2OCO1`, the GI50 in assay [1] is > 100 µM (inactive); in assay [2], > 100 µM (inactive); in assay [3], > 10 µM (inactive); in assay [4] it was > 100 µM (inactive); in assay [5], > 100 µM (inactive); in [6] it was greater than 100 µM. Moreover, the GI50 was > 100 µM (inactive) in assay [7]; > 100 µM (inactive) in assay [8]; > 100 µM (inactive) in assay [9]; > 100 µM (inactive) in assay [10]; 58.7 µM (inactive) in [11]; > 100 µM (inactive) in assay [12]. Besides, the GI50 in [13], in assay [14], in assay [15], in [16], in assay [17] and in assay [18] was > 100 µM (inactive) in each case. Moreover, the GI50 in [19] and in assay [20] was > 100 µM (inactive) throughout.
Consider `COC1/C=C\OC2(C)Oc3c(C)c(O)c4c(O)c(c(/C=N\OCCCc5ccccc5)c(O)c4c3C2=O)NC(=O)/C(C)=C\C=C/C(C)C(O)C(C)C(O)C(C)C(OC(C)=O)C1C` (centres undefined), for which the GI50 in assay [1] is 6.93 µM (inactive); in assay [2], 4.32 µM (inactive); in [3], 3.08 µM (inactive); in assay [4] it was 4.71 µM (inactive); in assay [5], 11.4 µM (inactive); in assay [6], 3.16 µM. Further, the GI50 in [7] was 3.01 µM (inactive); in assay [8], 6.31 µM (inactive); in assay [9], 3.33 µM (inactive); in [10], 2.25 µM (inactive); in [11], 2.13 µM (inactive); in [12] it was 2.9 µM (inactive). For the same compound, the GI50 in [13] is 2.93 µM (inactive); in assay [14] it was 1.78 µM (inactive); in assay [15] it was 4.42 µM (inactive); in assay [16] it was 2.81 µM (inactive); in assay [17], 4.36 µM (inactive); in assay [18], 4.45 µM (inactive). Besides, the GI50 in assay [19] is 4.36 µM (inactive).
